# Data from ChEMBL document CHEMBL3124778, “Structure-based design of new dihydrofolate reductase antibacterial agents: 7-(benzimidazol-1-yl)-2,4-diaminoquinazolines” (J Med Chem, 2014).
# Tests used:
# Dihydrofolate reductase [1] = biological target: T1, Dihydrofolate reductase (Homo sapiens, UniProt P00374); test: Inhibition of human DHFR using dihydrofolate as substrate preincubated for 10 mins followed by substrate addition by spectrophotometric analysis in presence of NADPH
# T1 sequence (P00374 whole entry): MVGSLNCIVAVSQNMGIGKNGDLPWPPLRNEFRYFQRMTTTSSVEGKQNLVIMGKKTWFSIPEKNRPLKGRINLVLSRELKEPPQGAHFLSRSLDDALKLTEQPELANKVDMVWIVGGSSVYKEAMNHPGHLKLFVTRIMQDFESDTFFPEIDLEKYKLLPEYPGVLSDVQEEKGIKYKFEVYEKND
# Staphylococcus aureus [2] = test: Antibacterial activity against Staphylococcus aureus ATCC 13709 after 18 to 24 hrs by alamar Blue assay; assay type: functional
# Dihydrofolate reductase [3] = biological target: Dihydrofolate reductase (Staphylococcus aureus, UniProt P0A017); test: Inhibition of Staphylococcus aureus DHFR using dihydrofolate as substrate preincubated for 10 mins followed by substrate addition by spectrophotometric analysis in presence of NADPH
# Chain of Dihydrofolate reductase (Staphylococcus aureus, UniProt P0A017) (P0A017 whole entry): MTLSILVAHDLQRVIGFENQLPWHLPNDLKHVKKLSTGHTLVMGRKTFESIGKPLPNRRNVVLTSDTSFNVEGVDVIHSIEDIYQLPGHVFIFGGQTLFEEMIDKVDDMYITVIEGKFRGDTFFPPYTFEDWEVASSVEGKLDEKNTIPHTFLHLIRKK
# [4] = Selectivity ratio of Ki for human DHFR to Ki for Staphylococcus aureus DHFR
# Staphylococcus aureus [5] = test: Antibacterial activity against TMP-resistant Staphylococcus aureus expressing DHFR F99Y mutant after 18 to 24 hrs by alamar Blue assay; assay type: functional
# Staphylococcus aureus [6] = test: Antibacterial activity against Staphylococcus aureus ATCC 13709 after 18 to 24 hrs by alamar Blue assay in presence of 20% heat inactivated mouse serum; assay type: functional
# Streptococcus pneumoniae [7] = test: Antibacterial activity against Streptococcus pneumoniae ATCC 700669 after 18 to 24 hrs by alamar Blue assay; assay type: functional
# Streptococcus pneumoniae [8] = test: Antibacterial activity against Streptococcus pneumoniae ATCC 700904 after 18 to 24 hrs by alamar Blue assay; assay type: functional
# Streptococcus pneumoniae [9] = test: Antibacterial activity against Streptococcus pneumoniae ATCC 700676 after 18 to 24 hrs by alamar Blue assay; assay type: functional
# Streptococcus pneumoniae [10] = test: Antibacterial activity against Streptococcus pneumoniae ATCC 700675 after 18 to 24 hrs by alamar Blue assay; assay type: functional
# Streptococcus pneumoniae [11] = test: Antibacterial activity against Streptococcus pneumoniae ATCC 49619 after 18 to 24 hrs by alamar Blue assay; assay type: functional
# Streptococcus pneumoniae [12] = test: Antibacterial activity against Streptococcus pneumoniae ATCC 51916 after 18 to 24 hrs by alamar Blue assay; assay type: functional
# Streptococcus pneumoniae [13] = test: Antibacterial activity against Streptococcus pneumoniae ATCC 700674 after 18 to 24 hrs by alamar Blue assay; assay type: functional
# Streptococcus pneumoniae [14] = test: Antibacterial activity against Streptococcus pneumoniae after 18 to 24 hrs by alamar Blue assay; assay type: functional
# Streptococcus pneumoniae [15] = test: Antibacterial activity against Streptococcus pneumoniae ATCC 700671 after 18 to 24 hrs by alamar Blue assay; assay type: functional
# Streptococcus pneumoniae [16] = test: Antibacterial activity against Streptococcus pneumoniae ATCC BAA-255 after 18 to 24 hrs by alamar Blue assay; assay type: functional
# Streptococcus pneumoniae [17] = test: Antibacterial activity against Streptococcus pneumoniae ATCC 700677 after 18 to 24 hrs by alamar Blue assay; assay type: functional
Structure (SMILES),Ki (Dihydrofolate reductase [1]),MIC (Staphylococcus aureus [2]),Ki (Dihydrofolate reductase [3]),Ratio Ki [4],MIC (Staphylococcus aureus [5]),MIC (Staphylococcus aureus [6]),also measured
Cc1cc2nc(-c3ccoc3)n(-c3ccc4c(N)nc(N)nc4c3)c2cc1C,723 nM,0.06 µg/mL,0.008 nM,90000,2 µg/mL,1 µg/mL,–
CN(Cc1cnc2nc(N)nc(N)c2n1)c1ccc(C(=O)N[C@@H](CCC(=O)O)C(=O)O)cc1 [METHOTREXATE],–,> 64 µg/mL,–,–,–,–,–
COc1ccc(-c2nc3cc(C)c(C)cc3n2-c2ccc3c(N)nc(N)nc3c2)cc1,2300 nM,2 µg/mL,0.34 nM,–,> 64 µg/mL,8 µg/mL,–
Cc1cc2nc(-c3cccnc3)n(-c3ccc4c(N)nc(N)nc4c3)c2cc1C,1560 nM,0.5 µg/mL,0.26 nM,> 1250,32 µg/mL,2 µg/mL,–
COc1cc2nc(-c3nccs3)n(-c3cc4nc(N)nc(N)c4cc3C)c2cc1OC,–,0.5 µg/mL,–,8950,8 µg/mL,0.5 µg/mL,–
Cc1cc2ncn(-c3ccc4c(N)nc(N)nc4c3)c2cc1C,1610 nM,2 µg/mL,1.7 nM,–,> 64 µg/mL,32 µg/mL,–
Cc1cc2nc(-c3ccncc3)n(-c3ccc4c(N)nc(N)nc4c3)c2cc1C,437 nM,0.125 µg/mL,0.026 nM,–,8 µg/mL,0.5 µg/mL,–
COc1cc2nc(-c3ccccn3)n(-c3ccc4c(N)nc(N)nc4c3)c2cc1OC,841 nM,4 µg/mL,0.36 nM,2300,> 64 µg/mL,16 µg/mL,–
COc1cc(Cc2cnc(N)nc2N)cc(OC)c1OC [TRIMETHOPRIM],–,–,–,–,–,–,MIC (Streptococcus pneumoniae [7]): > 64 µg/mL; MIC (Streptococcus pneumoniae [8]): > 64 µg/mL; MIC (Streptococcus pneumoniae [9]): 4 µg/mL; MIC (Streptococcus pneumoniae [10]): 8 µg/mL; MIC (Streptococcus pneumoniae [11]): 4 µg/mL; MIC (Streptococcus pneumoniae [12]): > 64 µg/mL; MIC (Streptococcus pneumoniae [13]): > 64 µg/mL; MIC50 (Streptococcus pneumoniae [14]): 8 µg/mL; MIC90 (Streptococcus pneumoniae [14]): > 64 µg/mL; MIC (Streptococcus pneumoniae [15]): > 64 µg/mL; MIC (Streptococcus pneumoniae [16]): 0.5 µg/mL; MIC (Streptococcus pneumoniae [17]): 4 µg/mL
Cc1cc2nc(-c3ccccn3)n(-c3ccc4c(N)nc(N)nc4c3)c2cc1C,–,0.125 µg/mL,–,26000,4 µg/mL,–,–
Cc1cc2nc(-c3cccn3C)n(-c3ccc4c(N)nc(N)nc4c3)c2cc1C,> 5000 nM,8 µg/mL,4 nM,–,64 µg/mL,32 µg/mL,–
Cc1cc2nc(-c3cscn3)n(-c3ccc4c(N)nc(N)nc4c3)c2cc1C,1100 nM,2 µg/mL,0.096 nM,11500,16 µg/mL,2 µg/mL,–
Cc1cc2nc(C3CC3)n(-c3ccc4c(N)nc(N)nc4c3)c2cc1C,–,0.5 µg/mL,–,–,8 µg/mL,–,–
COc1cc2nc(-c3ccco3)n(-c3cc4nc(N)nc(N)c4cc3Cl)c2cc1OC,610 nM,0.5 µg/mL,0.024 nM,–,8 µg/mL,0.5 µg/mL,–
Cc1cc2nc(-c3nccs3)n(-c3cc4nc(N)nc(N)c4cc3C)c2cc1C,–,0.03 µg/mL,–,97,0.125 µg/mL,0.06 µg/mL,–
Cc1cc2nc(C3CCOC3)n(-c3ccc4c(N)nc(N)nc4c3)c2cc1C (stereo unspecified),> 5000 nM,8 µg/mL,4.2 nM,–,> 64 µg/mL,64 µg/mL,–
COc1cc2nc(-c3nccs3)n(-c3ccc4c(N)nc(N)nc4c3)c2cc1OC,–,–,–,5300,16 µg/mL,–,–
COc1cc2nc(-c3cccs3)n(-c3cc4nc(N)nc(N)c4cc3Cl)c2cc1OC,> 3000 nM,0.5 µg/mL,0.048 nM,–,4 µg/mL,0.5 µg/mL,–
Cc1cc2nc(-c3ccco3)n(-c3ccc4c(N)nc(N)nc4c3)c2cc1C,943 nM,0.015 µg/mL,0.007 nM,–,1 µg/mL,0.125 µg/mL,–
Cc1cc2nc(N3CCOCC3)n(-c3ccc4c(N)nc(N)nc4c3)c2cc1C,–,–,–,–,> 64 µg/mL,–,–
Cc1cc2nc(-c3cccs3)n(-c3ccc4c(N)nc(N)nc4c3)c2cc1C,–,0.015 µg/mL,–,–,0.25 µg/mL,–,MIC (Streptococcus pneumoniae [7]): 4 µg/mL; MIC (Streptococcus pneumoniae [8]): 4 µg/mL; MIC (Streptococcus pneumoniae [9]): 0.25 µg/mL; MIC (Streptococcus pneumoniae [10]): 1 µg/mL; MIC (Streptococcus pneumoniae [11]): ≤ 0.5 µg/mL; MIC (Streptococcus pneumoniae [12]): 4 µg/mL; MIC (Streptococcus pneumoniae [13]): 16 µg/mL; MIC50 (Streptococcus pneumoniae [14]): 1 µg/mL; MIC90 (Streptococcus pneumoniae [14]): 16 µg/mL; MIC (Streptococcus pneumoniae [15]): 32 µg/mL; MIC (Streptococcus pneumoniae [16]): ≤ 0.125 µg/mL; MIC (Streptococcus pneumoniae [17]): 0.25 µg/mL
Cc1cc2nc(-c3ccsc3)n(-c3ccc4c(N)nc(N)nc4c3)c2cc1C,–,0.03 µg/mL,–,–,2 µg/mL,–,–
Cc1cc2nc(-c3cncn3C)n(-c3ccc4c(N)nc(N)nc4c3)c2cc1C,2920 nM,4 µg/mL,1.1 nM,–,64 µg/mL,32 µg/mL,–
COc1cc2nc(-c3nccs3)n(-c3cc4nc(N)nc(N)c4cc3Cl)c2cc1OC,–,0.125 µg/mL,–,29000,2 µg/mL,–,–
Cc1cc2nc(C3CCCO3)n(-c3ccc4c(N)nc(N)nc4c3)c2cc1C (stereo unspecified),749 nM,0.5 µg/mL,0.2 nM,–,16 µg/mL,> 16 µg/mL,–
COc1cc(Cc2cnc(N)nc2N)c2c(c1OC)OC(C1CC1)C=C2 (stereo unspecified),–,0.125 µg/mL,–,–,–,0.125 µg/mL,MIC (Streptococcus pneumoniae [7]): 8 µg/mL; MIC (Streptococcus pneumoniae [8]): 4 µg/mL; MIC (Streptococcus pneumoniae [9]): ≤ 0.5 µg/mL; MIC (Streptococcus pneumoniae [10]): ≤ 0.5 µg/mL; MIC (Streptococcus pneumoniae [11]): 0.125 µg/mL; MIC (Streptococcus pneumoniae [12]): 1 µg/mL; MIC (Streptococcus pneumoniae [13]): 8 µg/mL; MIC50 (Streptococcus pneumoniae [14]): ≤ 0.5 µg/mL; MIC90 (Streptococcus pneumoniae [14]): 8 µg/mL; MIC (Streptococcus pneumoniae [15]): 16 µg/mL; MIC (Streptococcus pneumoniae [16]): ≤ 0.5 µg/mL; MIC (Streptococcus pneumoniae [17]): ≤ 0.5 µg/mL
